Values of other authors in paper PMC5103216, “Novel Agonist Bioisosteres and Common Structure-Activity Relationships for The Orphan G Protein-Coupled Receptor GPR139” (Scientific Reports, 2016).

Target: T1, GPR139 (Homo sapiens, UniProt Q6DWJ6)
T1 sequence (Q6DWJ6 1-353): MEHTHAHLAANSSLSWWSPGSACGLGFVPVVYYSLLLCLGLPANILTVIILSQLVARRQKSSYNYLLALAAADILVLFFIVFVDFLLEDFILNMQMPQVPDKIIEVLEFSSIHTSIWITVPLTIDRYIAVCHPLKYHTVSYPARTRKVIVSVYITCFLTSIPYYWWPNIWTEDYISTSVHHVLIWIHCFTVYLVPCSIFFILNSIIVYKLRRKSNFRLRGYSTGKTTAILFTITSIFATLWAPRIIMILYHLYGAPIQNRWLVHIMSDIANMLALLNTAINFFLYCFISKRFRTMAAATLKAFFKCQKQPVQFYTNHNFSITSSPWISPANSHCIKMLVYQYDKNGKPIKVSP
Design: method as in ref 11 (Shi et al.)
Details: GPR139 agonist potency; ref 11 (Shi et al.); cited from earlier work

COc1cc(C(=O)NNC(=O)Nc2cccc3ccccc23)cc(OC)c1OC [1h] and COc1cc(OC)cc(C(=O)NNC(=O)Nc2c(C)ccc3ccccc23)c1 [1l] are within 1.5-fold of each other in EC50: 63 nM for the first, 86 nM for the second.

First: COc1cc(OC)cc(C(=O)NN(C)C(=O)Cc2cccc3ccccc23)c1 [1u]
Second: COc1cc(OC)cc(C(=O)N(C)NC(=O)Cc2cccc3ccccc23)c1 [1t]
The EC50 of the first is 2-fold higher: 5100 nM for the first, 2500 nM for the second. The second is the more potent here.

O=C(NNC(=O)c1ccc(Oc2ccccc2)cc1)Nc1cccc2ccccc12 [1i] and O=C(NNC(=O)c1ccccc1)Nc1cccc2ccccc12 [1b] are within 1.5-fold of each other in EC50: 2100 nM for the first, 2400 nM for the second.

Going from COc1cc(OC)cc(C(=O)CNC(=O)Nc2cccc3ccccc23)c1 [1q] to COc1cc(OC)cc(C(=O)NCC(=O)Nc2cccc3ccccc23)c1 [1r], the EC50 falls from 3300 nM to 180 nM (18-fold). The second is the more potent here.

Going from COc1cc(CNNC(=O)Nc2cccc3ccccc23)cc(OC)c1 [1p] to O=C(NNC(=O)c1ccc(F)cc1)Nc1cccc2ccccc12 [1g], the EC50 falls from > 10000 nM to 440 nM.

Same assay, conditions: ref 11 (Shi et al.); cited from earlier work

First: COc1cc(C(=O)NNC(=O)Nc2cccc3ccccc23)cc(OC)c1OC [1h]
Second: COc1cc(OC)cc(C(=O)NNC(=O)Nc2cccc3ccc(OC)cc23)c1 [1o]
The Emax of the first is higher: 76% for the first, 50% for the second.

Going from COc1cc(OC)cc(C(=O)NNC(=O)Nc2ccc(Br)c3ccccc23)c1 [1j] to COc1cc(OC)cc(C(=O)NNC(=O)Nc2cccc3c(Br)cccc23)c1 [1n], the Emax falls from 73% to 54%.

Going from COc1cc(OC)cc(C(=O)NNC(=O)Nc2c(C)ccc3ccccc23)c1 [1l] to COc1cc(OC)cc(C(=O)NNC(=O)Nc2ccc(Cl)c3ccccc23)c1 [1m], the Emax falls from 86% to 64%.

First: COc1cc(OC)cc(C(=O)NN(C)C(=O)Cc2cccc3ccccc23)c1 [1u]
Second: COc1cc(OC)cc(C(=O)N(C)NC(=O)Cc2cccc3ccccc23)c1 [1t]
The Emax of the first is higher: 84% for the first, 74% for the second.

Going from O=C(NNC(=O)c1ccc(Oc2ccccc2)cc1)Nc1cccc2ccccc12 [1i] to O=C(NNC(=O)c1ccccc1)Nc1cccc2ccccc12 [1b], the Emax rises from 61% to 85%.

Compared with CCc1cc(CC)cc(C(=O)NNC(=O)Nc2cccc3ccccc23)c1 [1e], O=C(NNC(=O)c1ccc(F)cc1)Nc1cccc2ccccc12 [1g] is higher in Emax: 6% for the first, 96% for the second.

Compared with COc1cc(OC)cc(C(=O)CNC(=O)Nc2cccc3ccccc23)c1 [1q], COc1cc(OC)cc(C(=O)NCC(=O)Nc2cccc3ccccc23)c1 [1r] is lower in Emax: 100% for the first, 98% for the second.

First: CCOc1ccccc1C(=O)NNC(=O)Nc1cccc2ccccc12 [1d]
Second: COc1cc(OC)cc(C(=O)NNC(=O)Nc2ccc(C#N)c3ccccc23)c1 [1k]
The Emax of the first is higher: 53% for the first, 20% for the second.
